Measured values taken from patent US10787485B2, “Peptide for coating surfaces” (Universität Leipzig, priority 2015, dated 2020).
“Also recorded” adds a separate entry of the source.

Tests used:
[1] = Biotin ELISA, binding of biotinylated peptides to etched titanium slices; details: for pEC50 binding affinity to titanium / EC50: biotinylated peptides, etched titanium slices, 2 hrs at RT in TBS; for EC50: read-out: EC50 binding affinity to titanium; for beginning of saturation phase of binding to titanium: concentration effect curve of the biotin ELISA
Description: Following synthesis of the mussel peptide by solid phase peptide synthesis (Fmoc/tBu strategy) the binding affinity to titanium was studied.
(§1) For that, titanium slices were etched in order to obtain a freshly oxidized surface. Subsequently, the titanium slices were incubated with various peptide concentrations. Following intensive washing steps titanium-bound peptide was identified with the well-described biotin-streptavidin interaction. […] Moreover, stability of the DOPA peptides was tested in cell supernatant to imitate in vitro conditions. For that, titanium slices were coated with the corresponding biotinylated peptides (concentration=1 μM). Following incubation in SaOS-2 cell supernatant at 37° C. remaining peptide was identified by means of the biotin ELISA. Within a period of 7 days constantly more than 50% of immobilized and biotinylated peptide were detected (FIG. 2C).
Titanium foil (Sigma Aldrich, thickness: 0.127 mm) was cut to round pieces (area=0.43 cm^2) and etched in H2SO4 (30%)/H2O2 (1:1 v/v) for 7 min. Following washing steps with water and TBS buffer (50 mM tris(hydroxymethyl)-aminomethane (Tris), 150 mM NaCl, pH 7.6) the titanium slices were incubated with various concentrations of biotinylated peptides in TBS buffer dissolved for 2 hrs. at RT. Subsequently, the coated slices were washed 5 times with TBS-T buffer (50 mM Tris, 150 mM NaCl, 0.1% Tween 20, pH 7.6) and transferred to new reaction vessels. The following biotin ELISA was performed in accordance with Hassert et al.^3 Zero reading values were obtained with uncoated titanium slices and subtracted from the generated values (absorption per cm^2). The obtained data points were non-linearly fitted with GraphPad Prism 5 software (GraphPadInc.). Error bars are represented as standard error of the mean (SEM) from at least 2 independent experiments.

[2] = Stability test by biotin ELISA of peptides immobilized on titanium, in SaOS-2 cell supernatant; format: in vitro ADME; details: titanium coated at 1 μM, 37° C.
Description: as §1
Titanium slices were etched as described and incubated overnight with 1 μM of peptide solutions in TBS buffer at RT. Subsequently, the coated slices were washed 5 times with TBS-T buffer and transferred to new reaction vessels. Thereafter, the titanium slices were incubated with cell supernatant (of SaOS-2 cells after 2 days of cell cultivation) at 37° C. for certain times. To detect […], biotinylated peptide on the surface the titanium slices were washed 4 times with TBS-T and once with TBS and the biotin ELISA was performed as described. Zero reading values were obtained by uncoated titanium slices and subtracted from the generated data. The obtained measuring values were normalized to the value measured at 0 min. Error bars are represented as standard error of the mean (SEM) from at least 2 independent experiments (double determination).

SaOS-2 cells [3] = assay: Proliferation assay (BrdU) on coated titanium; format: cell-based; details: 24 h incorporation after 2 d of cell adhesion, normalized to uncoated titanium
Description: (§2) In addition to initial cell adhesion after 6 h cell viability and proliferation after 3 d was studied. Incorporation of the bromine-labeled thymidine analogue bromodeoxyuridine (BrdU) within 24 h, after 2 d of cell adhesion, was used to determine proliferation of cells on coated titanium. No significant changes could be found between the immobilized peptides and controls (FIG. 5C). However, a peptide coating is advantageous compared to untreated titanium. […] Cell viability was studied after 3 days of adhesion by reacting resazurin to resorufin by living cells. […] This fact emphasizes the cell repellent, but at the same time not toxic properties of the PEG. […] Thus, the advantageous approach to present both cell binding peptides in one molecule is confirmed.
Cells were sown onto coated and washed titanium slices in FCS-free medium in a 96-well plate. After one day the medium was replaced by FCS-containing medium. On day 2 bromodeoxyuridine (BrdU) was added to each well for labelling (colorimetric Cell Proliferation kit, Roche). After 24 hrs. of incorporation of the label the cells were washed and fixed. […] Binding of the antibody was detected with the addition of a 3,3′,5,5′-tetramethylbenzidine (TMB) solution and H2O2(Calbiochem). […] The measured values (mean±SEM) were evaluated from 4 independent experiments performed in triplicates and normalized to uncoated titanium.

SaOS-2 cells [4] = assay: Cell adhesion assay on peptide-coated titanium (fluorescence microscopy); format: cell-based; details: 6 h adhesion, serum-free medium; for average cell plane (cell propagation, cell size) / cell morphology / actin cytoskeleton: 1 μM peptide coating; for cell number of adhered cells: normalized to uncoated Ti
Description: (§3) To determine the bioactivity of the ligated peptides and their controls cell adhesion studies have been performed. Osteoblast-like cells (SaOS-2) have been sown on etched peptide-coated titanium. All cellular experiments were performed in serum-free medium to prevent false results by adsorption of serum proteins. To study initial cell adhesion the cells were fixed and dyed after 6 h of cultivation to observe morphology and average cell plane and number by means of fluorescence microscopy. […] Indeed, an increase in cell size was observed, slightly higher than on uncoated titanium slices. […] Cells having a fibroblast-like morphology and distinct bundles of fibrils have been found on all RGD-containing peptide coatings. […] In addition to the average cell plane the cell number was determined by counting cells that adhered after 6 h. […] Moreover, a similar tendency as already in the cell plane experiment could be observed. […] It is known that RGD peptides mediate the formation of focal contacts that are decisive for the outer-inner communication between cell and ECM.^6 By immuno-labeling with an anti-vinculin antibody it is possible to visualize vinculin, a protein involved in building up focal adhesion.
Titanium foil was stamped and etched as already described. Following washing steps with water and PBS buffer (Dulbeccos phosphate) the titanium slices were sterilized with 70% ethanol/water (v/v) in an ultrasonic bath for 15 min. After having washed twice with PBS buffer the titanium slices were incubated overnight in a 48-well plate at RT with 300 μL of 1 μM of a peptide solution in PBS, PBS (negative control), and fibronectin in PBS (25 μg/mL, positive control).
Coated titanium slices (48-well plate) were washed twice with PBS. SaOS-2 cells were re-suspended in medium without FCS. Thereafter, the cells were sown on the coated titanium slices (50,000-90,000 cells per well, in this range we didn't find any influence on the cell plane for respective coating). Following adhesion for 6 hrs. the slices were washed with PBS and the cells were fixed with 4% paraformaldehyde in PBS for 30 min. Subsequently, the adhered cells were washed and permeabilized with 1% Triton X-100 in PBS for 1 min. Thereafter, the cells were dyed with phalloidin-tetramethylrhodamine isothiocyanate (phalloidin-TRITC) and HOECHST 33342 (both Sigma Aldrich). For fluorescence microscopy (Axio Observer microscope, Zeiss) the slices were attached to slides. For each slice (triplicate) 3 representative images at 20 fold and 10 fold magnification were made. Then, the average cell plane was determined by edging (Software Axio Vision 4.8, Zeiss) each single cell on one representative image (20 fold) each of each triplicate. The determined values were summarized from 3 independent experiments and represented as mean±SEM. To determine the cell number, three 10 fold magnified images were evaluated by means of ImageJ software and normalized to titanium=1, n≥3.

SaOS-2 cells [5] = assay: Viability assay (resazurin) on coated titanium; format: cell-based; details: after 3 days of adhesion
Description: as §2
Cells were sown onto coated and washed titanium slices in FCS-free medium in a 96-well plate. After one day the medium was replaced by FCS-containing medium. On day 3 20 μL of CellTiderBlue® (Promega) were added to each well. After 2 hrs. of incubation the reaction of resazurin to resorufin was determined by means of fluorescence intensity measurement at 560Ex/590Em nm. The measured values (mean±SEM) were evaluated from 4 independent experiments performed in triplicate.

SaOS-2 cells [6] = assay: Immunolabelling of focal contacts (vinculin) on peptide coatings; format: cell-based; details: 24 hrs adhesion, anti-vinculin antibody
Description: as §3
Cells (40,000 per well) were sown onto coated and washed titanium slices as already described. After 1 d of cell adhesion the slices were washed twice with PBS. All of the following washing steps were performed with 0.05% (v/v) Tween-20 in PBS. Thereafter, the cells were fixed and permeabilized as already described. To block unspecific interactions the slices were incubated with 1% bovine serum albumin (BSA) in PBS for 40 min. Subsequently, the cells were incubated with a murine monoclonal antibody against vinculin (Millipore, staining kit, 1:200) for 1 hr. at RT. Thereafter, the cells were washed and labeled with phalloidin-TRITC and a fluoresceinisothiocyanate (FITC) conjugated goat anti-mouse antibody (Millipore, 1:100) in 1% (v/v) BSA in PBS for 2 hr. Following a further washing step the nucleus was dyed with 4′,6-diamidino-2-phenylindol (DAPI, Millipore) in PBS for 15 min. Before the slices were attached to slides they were washed three times for 10 min. each. Fluorescence microscopy was performed on an Axio Observer microscope and an ApoTome Imaging System (Zeiss).

| Substance | pEC50 binding affinity to titanium [1] | EC50 [1] | stability on titanium, comparison of peptides [2] | average cell plane (cell propagation, cell size) (SaOS-2 cells [4]) | cell morphology / actin cytoskeleton (SaOS-2 cells [4]) | formation of focal adhesion contacts (vinculin) (SaOS-2 cells [6]) | other results |
| --- | --- | --- | --- | --- | --- | --- | --- |
| C-Peg-Y*-K(c[RGDfK])-Y*-Peg-G*(K(N3)-FHRRIKA-NH2)-βA-NH2 [MP-RGD-HBP] |  |  |  | highest average cell plane | distinctive, parallel actin filaments have formed | line-like adhesion contacts (green) were formed; also recorded: slight increase in focal complexes | cell proliferation (BrdU incorporation) (SaOS-2 cells [3]): slightly increased cell proliferation; cell viability (resazurin to resorufin) (SaOS-2 cells [5]): best result among all synthesized peptides |
| C-Peg-Y*-K(c[RGDfK])-Y*-Peg-G*-βA-NH2 [MP-RGD] |  |  |  | average cell size comparable to the naturally occurring ECM protein fibronectin |  | line-like adhesion contacts (green) were formed |  |
| C-Peg-Y*-K-Y*-Peg-G*(K(N3)-FHRRIKA-NH2)-βA-NH2 [MP-HBP] |  |  |  | increase of cell propagation compared with MP and uncoated titanium | only formed a few actin filaments and adhered in irregular cell shapes | a few or no focal adhesion contacts |  |
| C-Peg-Y*-K-Y*-Peg-G*-βA-NH2 [MP] | 7.6±0.1 | 23.6 nM | tendency to a higher stability | smallest cell propagation | rather round shape with slightly formed cytoskeleton | a few or no focal adhesion contacts | beginning of saturation phase of binding to titanium [1]: sub-μM range; cell number of adhered cells (SaOS-2 cells [4]): smallest cell number; cell viability (resazurin to resorufin) (SaOS-2 cells [5]): more living cells could be analyzed on this coating than on titanium |
| c[RGDfK(dienophile)] |  |  |  |  |  |  | cell number of adhered cells (SaOS-2 cells [4]): increased to a greater extent than on HBP |

More lines, main results first:

| pEC50 binding affinity to titanium [1] | EC50 [1] | stability on titanium, comparison of peptides [2] | Substance | average cell plane (cell propagation, cell size) (SaOS-2 cells [4]) | cell morphology / actin cytoskeleton (SaOS-2 cells [4]) | formation of focal adhesion contacts (vinculin) (SaOS-2 cells [6]) | other results |
| --- | --- | --- | --- | --- | --- | --- | --- |
| 8.2±0.1 | 6.4 nM | no significant differences | Bio-X-X-A-K-P*-S-Y*-P*-P*-T-Y*-K-NH2 [mefp-1] |  |  |  | beginning of saturation phase of binding to titanium [1]: sub-μM range |
|  |  | no significant differences | Bio-X-X-C-Peg-Y*-K-Y*-Peg-G*-βA-NH2 [bio-MP] |  |  |  |  |
| 4.6±0.1 | > 10000 nM |  | P*-T-Y-K-NH2 [bio-(−) mefp-1] |  |  |  |  |
